{"source": "patent US20250352675A1", "about": "“CA-IX TARGETING FLUORESCENT PROBES” (BRACCO IMAGING S.P.A., priority 2022, published 2025)", "key": {"[1]": {"assay": "Optical characterization (excitation/emission maxima, molar extinction coefficient)", "format": "physicochemical", "details": "in water"}, "[2]": {"target": "T1, recombinant bovine CAII enzyme (bCAII) (Bos taurus, UniProt P00921)", "T1 construct": "purchased Sigma-Aldrich; host or cells: E. coli", "T1 sequence (P00921 whole entry)": "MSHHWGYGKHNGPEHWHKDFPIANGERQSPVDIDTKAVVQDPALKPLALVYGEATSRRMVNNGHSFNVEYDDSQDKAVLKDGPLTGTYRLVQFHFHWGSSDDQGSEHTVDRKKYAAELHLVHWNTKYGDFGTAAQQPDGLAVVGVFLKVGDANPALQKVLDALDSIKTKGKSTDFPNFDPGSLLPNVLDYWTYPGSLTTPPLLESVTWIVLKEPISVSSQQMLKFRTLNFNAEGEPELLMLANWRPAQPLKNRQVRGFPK", "assay": "Dansylamide (DNSA) displacement fluorescence assay on carbonic anhydrase catalytic site", "format": "binding", "method": "The binding affinity of the compounds of formula (I) to Carbonic Anhydrase (CA) catalytic site was determined to assess the targeting efficacy of the molecular vectors, even after labeling the targeting ligand with the fluorescent portion of the probe.\nSuch enzyme in fact is highly available and has a catalytic site with high degree of homology in different carbonic anhydrase isoforms (Aggarwal M. et al., J Enzyme Inhib Med Chem 2013; 28(2): 267-277).\nThe dissociation constant (Ko) of compounds of formula (I) for bCAII was estimated by performing a fluorescence-based assay, exploiting the drop of fluorescence deriving from the displacement of carbonic anhydrase-bound dansylamide (DNSA) in presence of competitors and was adapted for application in 96-well plates from Wang S C et al., Biochem Mol Biol Educ. 2006, 34(5): 364-368. […] In both cases DNSA is excited at about 320 nm. Thus, excitation of carbonic anhydrase aromatic residues (Trp) at 285 nm generates an emission at 340 nm, that is quenched in presence of bound DNSA. The quenching occurs by FRET (fluorescence resonance energy transfer) to bound DNSA, which is in turn excited, emitting at 460 nm.\nMolecules that bind to CA in the same binding site of DNSA, such as sulfonamides or derivatives, competitively displace DNSA from CA. The degree of displacement is function of the affinity of competitors and can be followed through the drop of fluorescence at 460 nm.\nIn detail, 5-(Dimethylamino)-1-naphthalenesulfonamide (dansylamide, DNSA, Sigma-Aldrich 218898) was reconstituted in 20 mM Tris pH 8, aliquoted and stored at −20° C.; bCAII (recombinant, expressed in E. Coli, Sigma-Aldrich) was divided in aliquots and stored at −20° C.\nDNSA fluorescence emission at 462 nm from each well was recorded after excitation at 285 nm (Trp wavelength of excitation) and consequent selective excitation of DNSA bound to bCAII by FRET. Fractional saturation of bCAII was experimentally determined through normalization of fluorescence data between 1 (no compounds) and 0 (maximal DNSA displacement by presence of binding competitors), according to the equation below: […]\nwhere r is fractional saturation, FLobs is the recorded fluorescence intensity, FLmin is the fluorescence intensity recorded at maximal concentration of compounds, and FLmax is fluorescence recorded in absence of compounds.\nThe KD of CA-binding compounds (=KDcomp) was then derived by mathematical fitting of experimental data according to the equation: […]\nMathematical fitting was performed using Microsoft Excel Solver.\nAll compounds were tested in triplicate."}, "[3]": {"assay": "Ex vivo biodistribution, organ-to-muscle ratio", "format": "in vivo, mice", "details": "1 nmol/mouse, 24 hours after administration", "method": "(§1) The ex vivo biodistribution of the representative compounds 1, 2 and 3 and of the reference compound HF-1 (at 1 nmol/mouse) was evaluated in HT-29 excised tumors and tissues at the end of the in vivo OI sessions 24 hours post intravenous administration. At the end of the in vivo experiment, animals were euthanized by overdose of gaseous anesthesia followed by cervical dislocation. Tumor tissue, muscle, and other organs of interest were removed for ex vivo fluorescent signal measurements. The fluorescence signal intensity was measured by the IVIS Spectrum system. Regions of interest (ROIs) were drawn around each organ and tumor using the Living Image Software (PerkinElmer) and evaluating signal intensity in the tissues (expressed as Average Radiant Efficiency). The ratio between the fluorescence signal in the organs and tumor was then calculated to assess the contrast to hind limb muscle (representing the background).\nMoreover, FIG. 6 (b) and Table VIII show the accumulation and distribution of the fluorescent probes in the dissected organs, reporting the ex vivo values of organs-to-muscle ratio from samples collected at 24 hours after the administration of representative compounds 1, 2 and 3 and of the reference compound HF-1 (1 nmol/mouse)."}, "CA-IX": {"target": "T2, CA-IX (Homo sapiens, UniProt Q16790)", "T2 construct": "host or cells: HT-29 human colorectal adenocarcinoma cells", "assay": "Cellular binding assessment by flow cytometry on CA-IX expressing HT-29 cells", "details": "1 hour 30 min on ice, read-out: CA-IX receptor affinity (KD, to HT-29 cells)", "method": "Human colon adenocarcinoma HT-29 cells (ATCC) used for the cellular binding experiments were cultured in McCoy's 5A medium (Sigma-Aldrich), supplemented with 10% HyClone Fetal Clone III (Euroclone), 2 mM L-glutamine (Sigma-Aldrich), 100 IU/mL penicillin, 0.1 mg/mL streptomycin, 0.25 μg/mL amphotericin B (Antibiotic-Antimycotic solution, Life Technologies) and cells were grown at 37° C. in humidified atmosphere enriched with 5% CO2. DPBS without MgCl2 and CaCl2 (Sigma-Aldrich) was used for cell rinsing.\nIndeed, by using the anti-human CA-IX antibody MAB2188 (R&D Systems) and the DAKO […], according to the instruction of the datasheet, HT-29 cells were estimated to express about 150,000 CA-IX molecules per cell. Thus, HT-29 cells were used to measure the binding of all compounds to CA-IX, expressed in its physiological environment at the cell-surface. Briefly, HT-29 cells were detached with StemPro® Accutase® Cell Dissociation Reagent (Life Technologies), collected in DPBS and counted. At least 2·10^5 cells were placed in 1.5 mL tubes on ice and resuspended in 50-100 μL of cold FACS buffer (eBioscience™ Flow Cytometry Staining Buffer, Invitrogen) containing scalar concentrations of compounds (compound 1: range 1-5 μM; compounds 2 and 3: range 0-20 μM). After incubation (1 hour and 30 min on ice in the dark), cells were rinsed 3 times in 300 μL of cold FACS buffer by centrifugation (5 min, 4° C., 350 RCF), discarding the supernatant. Cell pellets were then resuspended in 200 μL of cold FACS buffer (or in a suitable volume in order to obtain no more than 1000 recorded events per μL during FACS analysis) and analyzed with the flow cytometer Accuri™ C6 (BD Biosciences). The mean cell-associated fluorescence was plotted against concentration and the dissociation constant at equilibrium (Ko) was inferred by mathematical fitting with GraphPad Prism v.9 software, according to the following equation: […]\nwhere Bmax is the maximum specific binding in the same units as Y. KD is the equilibrium dissociation constant, in the same units as X. NS is the slope of nonspecific binding in Y units divided by X units. Background is the amount of nonspecific binding with no added Compound.\nAll compounds were analyzed in at least three independent experiments. The calculated KD are summarized in Table III and compared with the one obtained for HF-1."}, "[4]": {"assay": "Optical characterization (excitation/emission maxima, molar extinction coefficient)", "format": "physicochemical", "method": "A dual-beam UV-VIS spectrophotometer (Lambda 40, Perkin Elmer) was used to determine the absorbance (Abs) of the compounds of the invention. Emission/excitation (Em/Ex) spectra were carried out on a spectrofluorometer (FluoroLog-3 1IHR-320, Horiba Jobin Yvon) equipped with an F-3018 integrating sphere accessory. The measurements were performed using an excitation wavelength at maximum absorbance of different dyes, and the sample was excited with a 450W Xenon Light Source. Detection was performed by photomultiplier tubes (PMT-NIR) cooled detector or by TBX-04 detector. Dye solutions were carefully prepared to have an absorbance lower than 0.1 (optical densities) to minimize re-absorption phenomena.\nThe compounds of the invention were characterized in terms of their optical properties in vitro in aqueous medium (i.e., water/PBS pH 7.4) and in a clinical chemistry control serum (Seronorm, Sero S A), mimicking the chemical composition and optical properties of human serum. All solutions were freshly prepared. In particular, the compounds of the invention are characterized by absorption maxima comprised in the range from about 750 nm to 780 nm.\nThe excitation and emission maxima in PBS and Seronorm and the molar extinction coefficient (E) in water of representative compounds of formula (I) are shown in Table I in comparison with the known CA-IX targeting fluorescent probe named Hypoxyfluor-1 (HF-1, for instance disclosed in Bioconjugate Chem 2018, 29, 3320-3331). […] Moreover, the extinction coefficients were higher than […] for all compounds."}, "HT-29 tumor": {"system": "HT-29 tumor", "assay": "Ex vivo tumor-to-background ratio in excised HT-29 tumors", "design": "species or system mice", "details": "1 nmol/mouse, samples collected 24 hours after administration; tumor vs hind limb muscle", "method": "as §1"}, "[5]": {"details": "injection into the patient; cited from earlier work"}}, "note": "Like-named read-outs stand apart in the source and are kept apart here."}
{"molecule": "CC1(C)C(/C=C/C2=C(Oc3ccc(CCC(=O)NCCCCCCCC(=O)Nc4nnc(S(N)(=O)=O)s4)cc3)C(=C/C=C3/N(CCCCS(=O)(=O)O)c4ccc(S(=O)(=O)O)cc4C3(C)C)/CCC2)=[N+](CCCCS(=O)(=O)[O-])c2ccc(S(=O)(=O)O)cc21", "note": "[HF-1, reference compound]", "values": [{"measurement": "molar extinction coefficient (ε)", "setting": "[1]", "result": 255000, "unit": "M⁻¹ cm⁻¹"}, {"measurement": "Kd", "setting": "[2]; 0.25 μM bCAII, 5 μM DNSA, 20 mM Tris pH 8, triplicate, read-out: CAII receptor affinity (KD)", "result": "9.5 ± 1", "unit": "nM"}, {"measurement": "Organ-to-muscle ratio, intestine", "setting": "[3]", "result": "2.2 ± 1.3"}, {"measurement": "Organ-to-muscle ratio, kidney", "setting": "[3]", "result": "2.4 ± 0.3"}, {"measurement": "Organ-to-muscle ratio, liver", "setting": "[3]", "result": "5.7 ± 0.2"}, {"measurement": "Organ-to-muscle ratio, skin", "setting": "[3]", "result": "1.4 ± 0.0"}, {"measurement": "Organ-to-muscle ratio, spleen", "setting": "[3]", "result": "1.4 ± 0.3"}, {"measurement": "Organ-to-muscle ratio, stomach", "setting": "[3]", "result": "4.0 ± 1.7"}, {"measurement": "Kd", "setting": "CA-IX", "result": "115 ± 8", "unit": "nM"}, {"measurement": "Max Em", "setting": "[4]; PBS pH 7.4", "result": 798, "unit": "nm"}, {"measurement": "Max Ex", "setting": "[4]; PBS pH 7.4", "result": 772, "unit": "nm"}, {"measurement": "Max Em", "setting": "[4]; Seronorm", "result": 808, "unit": "nm"}, {"measurement": "Max Ex", "setting": "[4]; Seronorm", "result": 792, "unit": "nm"}, {"measurement": "ex vivo TBR ± SD, HT-29 tumor", "setting": "HT-29 tumor", "result": "3.1 ± 0.3"}]}
{"molecule": "^124I-cG250: chimeric version of monoclonal antibody G250 labelled with the radionuclide 124I", "values": [{"measurement": "time after injection to reach tumor/blood ratios suitable for imaging", "setting": "[5]", "result": "2 to 7", "unit": "days"}]}
{"molecule": "CN(C)c1cccc2c(S(N)(=O)=O)cccc12", "note": "[DNSA, 5-(Dimethylamino)-1-naphthalenesulfonamide, reference compound]", "values": [{"measurement": "Kd", "setting": "[2]; previously experimentally determined, read-out: dissociation constant at equilibrium of DNSA (KDDNSA)", "result": 170, "unit": "nM"}]}
